Reference: patent publication US10294202B2, “Pyrrolidinones as herbicides” (FMC Corporation, priority 2013, dated 2019)

Experiments:
nutsedge, yellow = experiment: Test C pre-/postemergence herbicide test; format: in vivo, Cyperus esculentus; details: for Nutsedge, Yellow plant response rating: scale 0 to 100, 0 is no effect and 100 is complete control
In short: (§1)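 Visual rating, 0 (no effect) to 100 (complete control), versus untreated controls after 13 to 15 days in the greenhouse. Pre: seeds in loam/sand, sprayed at planting. Post: 1- to 4-leaf plants (2 to 18 cm) in peat-based mix. Compounds in non-phytotoxic solvent plus surfactant.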

ducksalad = experiment: Test B flooded paddy test; format: in vivo, Heteranthera limosa; details: 250 g ai/ha, Flood; scale of 0 to 100 where 0 is no effect and 100 is complete control
In short: (§2)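 Treatment was made at the 2-leaf stage by dosing the standing floodwater, kept 3 cm above soil level for the whole test. Greenhouse exposure lasted 13 to 15 days. Response is a visual percent rating relative to controls, where a dash indicates no test result.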

crabgrass, large = experiment: Test C pre-/postemergence herbicide test; format: in vivo, Digitaria sanguinalis; details: for Crabgrass, Large plant response rating: scale 0 to 100, 0 is no effect and 100 is complete control
In short: as §1

blackgrass = experiment: Test C pre-/postemergence herbicide test; format: in vivo, Alopecurus myosuroides; details: for Blackgrass plant response rating: scale 0 to 100, 0 is no effect and 100 is complete control
In short: as §1

rice = experiment: Test B flooded paddy test; format: in vivo, Oryza sativa; details: 250 g ai/ha, Flood; scale of 0 to 100 where 0 is no effect and 100 is complete control
In short: as §2

pigweed = experiment: Test C pre-/postemergence herbicide test; format: in vivo, Amaranthus retroflexus
In short: as §1

giant foxtail = experiment: Test A pre-/postemergence herbicide test; format: in vivo, Setaria faberii; details: for Foxtail, Giant plant response rating: Preemergence, visual rating on 0 to 100 scale (0 no effect, 100 complete control)
In short: (§3)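 Seeds sown in loam soil/sand blend received a preemergence directed soil spray of test chemical in non-phytotoxic solvent with surfactant; postemergence plants (2–10 cm, one- to two-leaf stage) were sprayed with the same formulation. After about 10 days in greenhouse, injury was rated visually versus untreated controls, 0 (no effect) to 100 (complete control).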

oilseed rape = experiment: Test C pre-/postemergence herbicide test; format: in vivo, Brassica napus; details: for Oilseed Rape plant response rating: scale 0 to 100, 0 is no effect and 100 is complete control
In short: as §1

barnyardgrass [1] = experiment: Test B flooded paddy test; format: in vivo, Echinochloa crus-galli; details: 250 g ai/ha, Flood; scale of 0 to 100 where 0 is no effect and 100 is complete control
In short: as §2

wheat = experiment: Test A pre-/postemergence herbicide test; format: in vivo, Triticum aestivum; details: for Wheat plant response rating: Preemergence, visual rating on 0 to 100 scale (0 no effect, 100 complete control)
In short: as §3

lambsquarters = experiment: Test C pre-/postemergence herbicide test; format: in vivo, Chenopodium album
In short: as §1

barnyardgrass [2] = experiment: Test C pre-/postemergence herbicide test; format: in vivo, Echinochloa crus-galli; details: for Barnyardgrass plant response rating: scale 0 to 100, 0 is no effect and 100 is complete control
In short: as §1

[3] = Postemergence, 31 g ai/ha, scale 0 (no effect) to 100 (complete control)
[4] = Postemergence, 62 g ai/ha, scale 0 to 100 (0 no effect, 100 complete control)
[5] = Postemergence, 125 g ai/ha, scale 0 to 100 (0 no effect, 100 complete control)
[6] = Postemergence, 250 g ai/ha, scale 0 to 100 (0 no effect, 100 complete control)
[7] = Preemergence, 62 g ai/ha, scale 0 to 100
[8] = Preemergence, 125 g ai/ha, scale 0 to 100 (0 no effect, 100 complete control)
[9] = Postemergence, 125 g ai/ha, 0 to 100 scale, 0 no effect, 100 complete control
[10] = Postemergence, 500 g ai/ha, 0 to 100 scale (0 no effect, 100 complete control)
[11] = preemergence, 500 g ai/ha, 0 to 100 scale

O=C1NCC(c2ccc(F)c(C(F)(F)F)c2)C1C(=O)Nc1ccccc1F (racemic) [Compound 76]
90: Plant response rating, Ducksalad (ducksalad) | Foxtail, Giant plant response rating (giant foxtail; 125 g ai/ha) | Plant response rating, Foxtail, Giant (giant foxtail; [11]) | Plant response rating, Barnyardgrass (barnyardgrass [2]; [6])
5: Plant response rating, Pigweed (pigweed; [3])
30: Plant response rating, Pigweed (pigweed; [6]) | Plant response rating, Oilseed Rape (oilseed rape; [8])
60: Plant response rating, Wheat (wheat; [10])
35: Plant response rating (scale of 0 to 100), Lambsquarters (lambsquarters; Preemergence, 250 g ai/ha) | Plant response rating, Barnyardgrass (barnyardgrass [2]; [4])
95: Plant response rating, Barnyardgrass (barnyardgrass [2]; [8])
70: Plant response rating, Crabgrass, Large (crabgrass, large; [5])
50: Plant response rating, Crabgrass, Large (crabgrass, large; [4]) | Blackgrass plant response rating (blackgrass; Preemergence, 31 g ai/ha) | Plant response rating, Blackgrass (blackgrass; [7]) | Plant response rating, Wheat (wheat; [9]) | Plant response rating, Lambsquarters (lambsquarters; [6])
20: Plant response rating, Nutsedge, Yellow (nutsedge, yellow; [8])
85: Plant response rating, Barnyardgrass (barnyardgrass [2]; [5]) | Plant response rating, Barnyardgrass (barnyardgrass [2]; [7])
100: Plant response rating, Crabgrass, Large (crabgrass, large; [8]) | Plant response rating (scale of 0 to 100), Crabgrass, Large (crabgrass, large; Preemergence, 250 g ai/ha)
75: Plant response rating, Crabgrass, Large (crabgrass, large; [6]) | Plant response rating (scale of 0 to 100), Oilseed Rape (oilseed rape; Preemergence, 250 g ai/ha)
80: Plant response rating, Blackgrass (blackgrass; [8]) | Plant response rating (scale of 0 to 100), Blackgrass (blackgrass; Preemergence, 250 g ai/ha) | Plant response rating, Foxtail, Giant (giant foxtail; [9]) | Plant response rating, Foxtail, Giant (giant foxtail; [10]) | Barnyardgrass plant response rating (barnyardgrass [2]; Preemergence, 31 g ai/ha)
10: Plant response rating, Blackgrass (blackgrass; [6]) | Plant response rating, Pigweed (pigweed; [4]) | Plant response rating, Pigweed (pigweed; [5]) | Plant response rating, Oilseed Rape (oilseed rape; [6])
0: Plant response rating, Nutsedge, Yellow (nutsedge, yellow; [3]) | Plant response rating, Nutsedge, Yellow (nutsedge, yellow; [4]) | Plant response rating, Nutsedge, Yellow (nutsedge, yellow; [5]) | Plant response rating, Nutsedge, Yellow (nutsedge, yellow; [6]) | Nutsedge, Yellow plant response rating (nutsedge, yellow; Preemergence, 31 g ai/ha) | Plant response rating, Nutsedge, Yellow (nutsedge, yellow; [7]) | Plant response rating, Crabgrass, Large (crabgrass, large; [3]) | Plant response rating, Blackgrass (blackgrass; [3]) | Plant response rating, Blackgrass (blackgrass; [4]) | Plant response rating, Blackgrass (blackgrass; [5]) | Plant response rating, Rice (rice) | Plant response rating, Pigweed (pigweed; [7]) | Plant response rating, Pigweed (pigweed; [8]) | Plant response rating, Oilseed Rape (oilseed rape; [3]) | Plant response rating, Oilseed Rape (oilseed rape; [4]) | Plant response rating, Oilseed Rape (oilseed rape; [5]) | Oilseed Rape plant response rating (oilseed rape; Preemergence, 31 g ai/ha) | Plant response rating, Oilseed Rape (oilseed rape; [7]) | Plant response rating, Barnyardgrass (barnyardgrass [1]) | Wheat plant response rating (wheat; 125 g ai/ha) | Plant response rating, Wheat (wheat; [11]) | Plant response rating, Lambsquarters (lambsquarters; [7]) | Plant response rating, Lambsquarters (lambsquarters; [8]) | Plant response rating, Barnyardgrass (barnyardgrass [2]; [3])
98: Crabgrass, Large plant response rating (crabgrass, large; Preemergence, 31 g ai/ha) | Plant response rating, Crabgrass, Large (crabgrass, large; [7]) | Plant response rating (scale of 0 to 100; 0 is no effect, 100 is complete control), Barnyardgrass (barnyardgrass [2]; Preemergence, 250 g ai/ha)
55: Plant response rating (scale of 0 to 100), Nutsedge, Yellow (nutsedge, yellow; Preemergence, 250 g ai/ha)
40: Plant response rating (scale of 0 to 100), Pigweed (pigweed; Preemergence, 250 g ai/ha) | Plant response rating, Lambsquarters (lambsquarters; [3]) | Plant response rating, Lambsquarters (lambsquarters; [4]) | Plant response rating, Lambsquarters (lambsquarters; [5])

O=C1NCC(c2ccc(F)c(C(F)(F)F)c2)C1C(=O)Nc1ccccc1C(F)(F)F (racemic) [Compound 78]
60: Barnyardgrass plant response rating (barnyardgrass [2]; Preemergence, 31 g ai/ha)
80: Plant response rating, Foxtail, Giant (giant foxtail; [9]) | Plant response rating, Foxtail, Giant (giant foxtail; [10])
30: Blackgrass plant response rating (blackgrass; Preemergence, 31 g ai/ha)
85: Plant response rating, Ducksalad (ducksalad) | Plant response rating (scale of 0 to 100), Blackgrass (blackgrass; Preemergence, 250 g ai/ha) | Plant response rating, Lambsquarters (lambsquarters; [8]) | Plant response rating (scale of 0 to 100), Lambsquarters (lambsquarters; Preemergence, 250 g ai/ha) | Plant response rating, Barnyardgrass (barnyardgrass [2]; [8])
0: Nutsedge, Yellow plant response rating (nutsedge, yellow; Preemergence, 31 g ai/ha) | Plant response rating, Nutsedge, Yellow (nutsedge, yellow; [7]) | Plant response rating, Nutsedge, Yellow (nutsedge, yellow; [8]) | Plant response rating (scale of 0 to 100), Nutsedge, Yellow (nutsedge, yellow; Preemergence, 250 g ai/ha) | Plant response rating, Rice (rice) | Pigweed plant response rating (pigweed; Preemergence, 31 g ai/ha, scale 0 to 100, 0 is no effect and 100 is complete control) | Oilseed Rape plant response rating (oilseed rape; Preemergence, 31 g ai/ha) | Plant response rating, Barnyardgrass (barnyardgrass [1]) | Wheat plant response rating (wheat; 125 g ai/ha) | Plant response rating, Wheat (wheat; [11])
90: Foxtail, Giant plant response rating (giant foxtail; 125 g ai/ha) | Plant response rating, Foxtail, Giant (giant foxtail; [11])
10: Plant response rating, Oilseed Rape (oilseed rape; [7]) | Plant response rating, Oilseed Rape (oilseed rape; [8])
40: Plant response rating, Pigweed (pigweed; [7]) | Plant response rating, Pigweed (pigweed; [8]) | Plant response rating (scale of 0 to 100), Pigweed (pigweed; Preemergence, 250 g ai/ha) | Plant response rating, Wheat (wheat; [9]) | Plant response rating, Lambsquarters (lambsquarters; [7])
50: Plant response rating, Wheat (wheat; [10])
75: Plant response rating, Blackgrass (blackgrass; [7]) | Plant response rating, Blackgrass (blackgrass; [8]) | Plant response rating (scale of 0 to 100), Oilseed Rape (oilseed rape; Preemergence, 250 g ai/ha) | Plant response rating, Barnyardgrass (barnyardgrass [2]; [7])
98: Plant response rating, Crabgrass, Large (crabgrass, large; [7]) | Plant response rating, Crabgrass, Large (crabgrass, large; [8]) | Plant response rating (scale of 0 to 100), Crabgrass, Large (crabgrass, large; Preemergence, 250 g ai/ha)
95: Crabgrass, Large plant response rating (crabgrass, large; Preemergence, 31 g ai/ha) | Plant response rating (scale of 0 to 100; 0 is no effect, 100 is complete control), Barnyardgrass (barnyardgrass [2]; Preemergence, 250 g ai/ha)
